Data published in patent US10149835B2, “Isoxazole derivatives as FXR agonists and methods of use thereof” (Enanta Pharmaceuticals, Inc., priority 2016, dated 2018).

Target: human FXR (NR1H4) (Homo sapiens (Human), UniProt Q96RI1)
Test: Human FXR (NR1H4) Assay (Gal4 promoter driven luciferase reporter, Indigo Bioscience kit)
Assay type: cell-based
Details: CHO reporter cells expressing human NR1H4; 22 hours incubation; potency ranges
Procedure: To a solution of compound (1) (211 mg, 0.37 mmol) in toluene (3 ml) was added dropwise triethylamine (0.10 ml, 0.74 mmol) and diphenyl phosphorazidate (0.087 ml, 0.40 mmol). The mixture was stirred at 23° C. for 1 h, at 85° C. for 3.5 h, and cooled to 23° C. A solution of N,N-dimethylsulfamide (68 mg, 0.55 mmol) in THF (0.5 mL) and DBU (83 μl, 0.55 mmol) was added. The mixture was stirred at 23° C. for 16 h, quenched with 1 M HCl, and extracted with EtOAc (2×). The combined organic layers were washed with brine and concentrated in vacuo. The residue was purified by chromatography on silica gel column eluting with hexane/acetone (100/0 to 70/30, 10 min) to provide Example 7. Assays Human FXR (NR1H4) Assay
Determination of a ligand mediated Gal4 promoter driven transactivation to quantify ligand binding mediated activation of FXR. FXR Reporter Assay kit purchased from Indigo Bioscience (Catalogue number: IB00601) to determine the potency and efficacy of compound developed by Enanta that can induce FXR activation. The principle application of this reporter assay system is to quantify functional activity of human FXR. The assay utilizes non-human mammalian cells, CHO (Chinese hamster ovary) cells engineered to express human NR1H4 protein (referred to as FXR). Reporter cells also incorporate the cDNA encoding beetle luciferase which catalyzes the substrates and yields photon emission. Luminescence intensity of the reaction is quantified using a plate-reading luminometer, Envision. Reporter Cells include the luciferase reporter gene functionally linked to an FXR responsive promoter. Thus, quantifying changes in luciferase expression in the treated reporter cells provides a sensitive surrogate measure of the changes in FXR activity. […] The assay is according to the manufacturer's instructions. In brief, the assay was performed in white, 96 well plates using final volume of 100 μl containing cells with different doses of compounds. Retrieve Reporter Cells from −80° C. storage. Perform a rapid thaw of the frozen cells by transferring a 10 ml volume of 37° C. cell recovery medium into the tube of frozen cells. Recap the tube of Reporter Cells and immediately place it in a 37° C. water bath for 5-10 minutes. Retrieve the tube of Reporter Cell Suspension from the water bath. Sanitize the outside surface of the tube with a 70% alcohol swab, and then transfer it into the cell culture hood. Dispense 90 μl of cell suspension into each well of the 96-well Assay Plate. Transfer the plate into 37° C. incubator, allowing the cells adherent to the bottom of the well. Dilute compounds in Dilution Plate (DP), and administrate to cells at Assay Plate (AP). DMSO content of the samples was kept at 0.2%. Cells were incubated for additional 22 hours before luciferase activities were measured. Thirty minutes before intending to quantify FXR activity, remove Detection Substrate and Detection Buffer from the refrigerator and place them in a low-light area so that they may equilibrate to room temperature. Remove the plate's lid and discard all media contents by ejecting it into an appropriate waste container. Gently tap the inverted plate onto a clean absorbent paper towel to remove residual droplets. Cells will remain tightly adhered to well bottoms. Add 100 μl of luciferase detection reagent to each well of the assay plate. Allow the assay plate to rest at room temperature for at least 5 minutes following the addition of LDR. Set the instrument (Envision) to perform a single 5 second “plate shake” prior to reading the first assay well. Read time may be 0.5 second (500 mSec) per well.

Chain of human FXR (NR1H4) (Q96RI1 whole entry, the tested form may be a part): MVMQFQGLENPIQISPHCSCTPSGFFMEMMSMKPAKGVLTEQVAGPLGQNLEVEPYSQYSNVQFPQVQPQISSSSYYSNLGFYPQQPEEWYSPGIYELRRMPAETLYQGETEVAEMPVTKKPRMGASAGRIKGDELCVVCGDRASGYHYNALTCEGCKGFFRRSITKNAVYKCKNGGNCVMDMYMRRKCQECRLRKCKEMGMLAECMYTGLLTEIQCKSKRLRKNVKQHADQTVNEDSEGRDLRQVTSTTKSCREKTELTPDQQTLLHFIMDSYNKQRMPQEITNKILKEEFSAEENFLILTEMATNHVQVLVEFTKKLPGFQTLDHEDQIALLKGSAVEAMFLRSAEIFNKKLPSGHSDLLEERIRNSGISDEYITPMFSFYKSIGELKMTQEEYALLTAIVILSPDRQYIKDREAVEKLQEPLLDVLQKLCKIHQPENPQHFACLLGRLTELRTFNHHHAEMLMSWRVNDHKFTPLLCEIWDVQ

Question: How did the EC50 turn out when `CN(C)S(=O)(=O)NC(=O)c1ccc(N2C3CC[C@H]2CC(OCc2c(-c4c(Cl)cccc4Cl)noc2C2CC2)C3)c(F)c1` (some centres unmarked) [Example 4] was run?
Answer: The EC50 was less than 100 nM.

Question: How did the EC50 turn out when `O=C(NS(=O)(=O)C1CC1)c1ccc2nc(N3C4CC[C@H]3CC(OCc3c(-c5c(Cl)cccc5Cl)noc3C3CC3)C4)sc2c1` (some centres unmarked) [Example 2] was run?
Answer: Its EC50 is less than 100 nM.

Question: With `CC(C)(C)c1ccc(S(=O)(=O)NC(=O)c2ccc3nc(N4C5CC[C@H]4CC(OCc4c(-c6c(Cl)cccc6Cl)noc4C4CC4)C5)sc3c2)cc1` (some centres unmarked) [Example 3] as the compound, how does the EC50 read?
Answer: Its EC50 is less than 100 nM.

Question: `O=C(NS(=O)(=O)C1CC1)c1ccc(N2C3CC[C@H]2CC(OCc2c(-c4c(Cl)cccc4Cl)noc2C2CC2)C3)c(F)c1` (some centres unmarked) [Example 6] was tested. Which EC50 did it give?
Answer: The EC50 was less than 100 nM.

Question: For `CC(C)(C)c1ccc(S(=O)(=O)NC(=O)c2ccc(N3C4CC[C@H]3CC(OCc3c(-c5c(Cl)cccc5Cl)noc3C3CC3)C4)c(F)c2)cc1` (some centres unmarked) [Example 5], which EC50 is on record?
Answer: The EC50 was less than 100 nM.

Same assay, conditions: CHO reporter cells expressing human NR1H4; normalized to CDCA set as 100%

Question: With `CN(C)S(=O)(=O)NC(=O)c1ccc(N2C3CC[C@H]2CC(OCc2c(-c4c(Cl)cccc4Cl)noc2C2CC2)C3)c(F)c1` (some centres unmarked) [Example 4] as the compound, how does the “Efficacy (%)” value read?
Answer: Its value is 174%.

Question: How did the “Efficacy (%)” value turn out when `O=C(NS(=O)(=O)C1CC1)c1ccc2nc(N3C4CC[C@H]3CC(OCc3c(-c5c(Cl)cccc5Cl)noc3C3CC3)C4)sc2c1` (some centres unmarked) [Example 2] was run?
Answer: Its value is 204%.

Question: Which “Efficacy (%)” value does the source give for `CC(C)(C)c1ccc(S(=O)(=O)NC(=O)c2ccc3nc(N4C5CC[C@H]4CC(OCc4c(-c6c(Cl)cccc6Cl)noc4C4CC4)C5)sc3c2)cc1` (some centres unmarked) [Example 3] here?
Answer: Its value is 226%.

Question: `O=C(NS(=O)(=O)C1CC1)c1ccc(N2C3CC[C@H]2CC(OCc2c(-c4c(Cl)cccc4Cl)noc2C2CC2)C3)c(F)c1` (some centres unmarked) [Example 6] was tested. Which “Efficacy (%)” value did it give?
Answer: Its value is 170%.

Question: How did the “Efficacy (%)” value turn out when `CC(C)(C)c1ccc(S(=O)(=O)NC(=O)c2ccc(N3C4CC[C@H]3CC(OCc3c(-c5c(Cl)cccc5Cl)noc3C3CC3)C4)c(F)c2)cc1` (some centres unmarked) [Example 5] was run?
Answer: Its value is 168%.

Question: For `CN(C)S(=O)(=O)NC(=O)c1ccc2nc(N3C4CC[C@H]3C[C@H](OCc3c(-c5c(Cl)cccc5Cl)noc3C3CC3)C4)sc2c1` [Example 1], which “Efficacy (%)” value is on record?
Answer: Its value is 204%.
